Measurements from PubChem BioAssay AID2060500 (Molecular Pharmacology Branch, DTP, NCI, 2025).

Tested on: 596521-263-R-J1-PDC complex spheroids, viability % of control
Experiment: Anticancer human tumor 596521-263-R-J1-PDC patient-derived soft tissue sarcoma cell line growth inhibition [GQUAD]
Conditions: for IC50: curve of first compound; for viability, T/C: stronger effect = lower value
Method in brief: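 Tumor cells were grown as complex spheroids with HUVEC endothelial cells and mesenchymal stem cells as stroma. G-quadruplex stabilizers were combined with targeted agents over half-log dilutions from near the clinical Cmax, or from 10 microM.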

[1] = second compound 0.0316 µM, first compound 0.000999 µM
[2] = second compound 0.0316 µM, first compound 0.00316 µM
[3] = second compound 0.0316 µM, first compound 0.00999 µM
[4] = second compound 0.0316 µM, first compound 0.0316 µM
[5] = second compound 0.0316 µM, first compound 0.0999 µM
[6] = second compound 0.0316 µM, first compound 0.316 µM
[7] = second compound 0.1 µM, first compound 0.000999 µM
[8] = second compound 0.1 µM, first compound 0.00316 µM
[9] = second compound 0.1 µM, first compound 0.00999 µM
[10] = second compound 0.1 µM, first compound 0.0316 µM
[11] = second compound 0.1 µM, first compound 0.0999 µM
[12] = second compound 0.1 µM, first compound 0.316 µM
[13] = second compound 0.316 µM, first compound 0.000999 µM
[14] = second compound 0.316 µM, first compound 0.00316 µM
[15] = second compound 0.316 µM, first compound 0.00999 µM
[16] = second compound 0.316 µM, first compound 0.0316 µM
[17] = second compound 0.316 µM, first compound 0.0999 µM
[18] = second compound 0.316 µM, first compound 0.316 µM
[19] = second compound 1 µM, first compound 0.000999 µM
[20] = second compound 1 µM, first compound 0.00316 µM
[21] = second compound 1 µM, first compound 0.00999 µM
[22] = second compound 1 µM, first compound 0.0316 µM
[23] = second compound 1 µM, first compound 0.0999 µM
[24] = second compound 1 µM, first compound 0.316 µM
[25] = second compound 3.16 µM, first compound 0.000999 µM
[26] = second compound 3.16 µM, first compound 0.00316 µM
[27] = second compound 3.16 µM, first compound 0.00999 µM
[28] = second compound 3.16 µM, first compound 0.0316 µM
[29] = second compound 3.16 µM, first compound 0.0999 µM
[30] = second compound 3.16 µM, first compound 0.316 µM
[31] = second compound 10 µM, first compound 0.000999 µM
[32] = second compound 10 µM, first compound 0.00316 µM
[33] = second compound 10 µM, first compound 0.00999 µM
[34] = second compound 10 µM, first compound 0.0316 µM
[35] = second compound 10 µM, first compound 0.0999 µM
[36] = second compound 10 µM, first compound 0.316 µM
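Also: spheroids exposed to drugs for 7 days before viability reading.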
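For viability, T/C in this document: 100% = DMSO vehicle control viability.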

`CC[C@@]1(O)C(=O)OCc2c1cc1n(c2=O)Cc2cc3c(CN(C)C)c(O)ccc3nc2-1` + Cc1[nH]c2ccc(F)cc2c1-c1nc2c3cccnc3c3ncccc3c2[nH]1 was tested, and the IC50 (second compound 0.0316 µM) was > 316 nM, the IC50 (second compound 0.1 µM) was > 316 nM and the IC50 (second compound 0.316 µM) was 291 nM. For the same compound, the IC50 (second compound 1 µM) was > 316 nM, the IC50 (second compound 3.16 µM) was 277 nM and the IC50 (second compound 10 µM) was > 316 nM. It also gave a viability, T/C [1] of 98.3%, a viability, T/C [2] of 100% and a viability, T/C [3] of 84%. The viability, T/C [4] was 69.5%, the viability, T/C [5] was 64.3% and the viability, T/C [6] was 58.7%. It also gave a viability, T/C [7] of 103%, a viability, T/C [8] of 99.1% and a viability, T/C [9] of 92.5%. It also gave a viability, T/C [10] of 65.6%, a viability, T/C [11] of 59.6% and a viability, T/C [12] of 53.5%. For the same compound, the viability, T/C [13] was 96.8%, the viability, T/C [14] was 103% and the viability, T/C [15] was 90.7%. It also gave a viability, T/C [16] of 78.5%, a viability, T/C [17] of 61% and a viability, T/C [18] of 49%. It also gave a viability, T/C [19] of 103%, a viability, T/C [20] of 109% and a viability, T/C [21] of 79.7%. The viability, T/C [22] was 65.7%, the viability, T/C [23] was 58% and the viability, T/C [24] was 51.4%. It also gave a viability, T/C [25] of 86.4%, a viability, T/C [26] of 84.1% and a viability, T/C [27] of 81.6%. The viability, T/C [28] was 67.6%, the viability, T/C [29] was 63.2% and the viability, T/C [30] was 48.2%. For the same compound, the viability, T/C [31] was 85.5%, the viability, T/C [32] was 89.9% and the viability, T/C [33] was 70.4%. For the same compound, the viability, T/C [34] was 59.3%, the viability, T/C [35] was 60.9% and the viability, T/C [36] was 50.3%.

`CCc1c2c(nc3ccc(O)cc13)-c1cc3c(c(=O)n1C2)COC(=O)[C@]3(O)CC` + Cc1[nH]c2ccc(F)cc2c1-c1nc2c3cccnc3c3ncccc3c2[nH]1 gave an IC50 (second compound 0.0316 µM) of 6.02 nM, an IC50 (second compound 0.1 µM) of 7.91 nM and an IC50 (second compound 0.316 µM) of 5.32 nM. The IC50 (second compound 1 µM) was 8.42 nM, the IC50 (second compound 3.16 µM) was 4.26 nM and the IC50 (second compound 10 µM) was 8.37 nM. It also gave a viability, T/C [1] of 65.8%, a viability, T/C [2] of 54.8% and a viability, T/C [3] of 45.7%. For the same compound, the viability, T/C [4] was 34.3%, the viability, T/C [5] was 19.2% and the viability, T/C [6] was 9.24%. For the same compound, the viability, T/C [7] was 57.3%, the viability, T/C [8] was 61.5% and the viability, T/C [9] was 47.4%. For the same compound, the viability, T/C [10] was 31.1%, the viability, T/C [11] was 21.5% and the viability, T/C [12] was 7.09%. For the same compound, the viability, T/C [13] was 71.4%, the viability, T/C [14] was 54.4% and the viability, T/C [15] was 44%. The viability, T/C [16] was 30.1%, the viability, T/C [17] was 16.1% and the viability, T/C [18] was 9.37%. The viability, T/C [19] was 67%, the viability, T/C [20] was 58.4% and the viability, T/C [21] was 50.3%. It also gave a viability, T/C [22] of 29.6%, a viability, T/C [23] of 17.5% and a viability, T/C [24] of 7.61%. The viability, T/C [25] was 61.8%, the viability, T/C [26] was 52.3% and the viability, T/C [27] was 42.1%. The viability, T/C [28] was 31.3%, the viability, T/C [29] was 18.8% and the viability, T/C [30] was 8.52%. It also gave a viability, T/C [31] of 56.8%, a viability, T/C [32] of 59.2% and a viability, T/C [33] of 48.6%. For the same compound, the viability, T/C [34] was 29.9%, the viability, T/C [35] was 17% and the viability, T/C [36] was 8.36%.
